Laboratory results: patent US7309484B2, “Compositions and methods for screening antibacterial compounds” (priority 2003, dated 2007)

Experiments:
[1] = test system: liaI expression (liaI::pMUTIN lacZ fusion, strain BFS2470; also liaH::pMUTIN, BFS2469); test: Disk-diffusion assay, blue ring on X-Gal plates; assay type: cell-based, Bacillus subtilis; conditions: for disk-diffusion assay: qualitative screen of β-Galactosidase activity, blue ring at edge of zone of inhibition, LB plates with X-Gal, strain BFS2470; for induction of liaI / liaH expression, in words: strains BFS2469 and BFS2470; as to Disk-diffusion assay: key: −: no induction; +: induction of yvql expression
From the text: The pMUTIN-insertion results in a disruption of the targeted gene and generates a transcriptional fusion to lacZ thereby allowing detection of both antibiotic sensitivity (as defined by the zone of inhibition around the disk) and inducibility (by the formation of a blue ring at the edge of the zone of inhibition) (Cao et al., 2002, Mol Microbiol. 45: 1267-1276, the entire teaching of which is incorporated herein). The disruption of liaI and liaH had no effect on the sensitivity of the mutants to any of the antibiotics tested. […] Equivalent levels of induction were also observed with the PliaI-74-cat-lacZ fragment (in HB0950), albeit with lower fold-changes (See, Table 2). While the mode of action is different for these antibiotics, all four interfere with the lipid II cycle, essential for the biosynthesis of cell envelope polymers (Lazar et al., 2002, Curr. Opin. Chem. Biol. 6: 786-93).
PliaI induction assays: Screening for liaI induction was done by disk diffusion assay essentially as described (Cai, S. J., and M. Inouye, 2002, J Biol Chem 277:24155-61). B. subtilis strains were inoculated from a fresh overnight LB agar plate and grown to mid-log phase (OD600 ˜0.45) at 37 YC with shaking. 20 μl of the culture was mixed with 3 ml of 0.7% soft LB agar (containing 40 μg of X-Gal per plate) and poured onto the bottom agar. After cooling and drying of the plates (20 min at 37 YC), filter paper disks (6 mm diameter) carrying 5 μl of stock solution (antibiotics normally 100 mg/ml; lysozyme 10 mg/ml; tunicamycin, surfactants, uncouplers 5 mg/ml each; inhibitors of protein biosynthesis as given in the media and growth conditions section) were placed on top of the agar. The plates were incubated at 37 YC overnight. After 12-24 h incubation, the plates were scored for the appearance of a blue ring at or near the edge of the zone of growth inhibition produced by the diffusion of the antibiotics from the filter disk.

[2] = test system: B. subtilis strain BFS2470; test: Concentration-dependent induction/killing experiments; assay type: cell-based, Bacillus subtilis; conditions: for lacZ-expression at higher concentration: FIG. 7a; for lacZ-expression at higher concentration / effect on cell growth / optical density: in words; for effect on cell growth / optical density: high concentrations, FIG. 7b; for antibiotic concentration at maximum induction of liaI: β-galactosidase assay after 30 min, 0.01 to 100 μg/ml tested
Procedure: Concentration-dependent induction/killing experiments were performed for bacitracin, nisin, ramoplanin and vancomycin as shown in FIG. 7. In all four cases the induction of liaI occurred in a concentration-dependent manner (FIG. 7a), reaching a maximum at an antibiotic concentration of about 10 μg/ml (1 μg/mL for vancomycin). The time of antibiotic addition is indicated by an arrow. The antibiotic concentrations affecting the induction of PliaI according to the β3-galactosidase assay are indicated by white symbols. The corresponding concentrations are: bacitracin ([…]), nisin (50, 70 and 100 μg/ml), ramoplanin (20, 50 and 100 μg/mL) and vancomycin (5, 10, 50 and 100 μg/mL).
This finding correlates well with the bactericidal effects of these antibiotics as inferred from the dramatic decrease of optical density: there is little effect of bacitracin and vancomycin on cell growth during the first 30-60 min after addition even at high concentrations (FIG. 7b).
The cultures were incubated with aeration at 37° C.

[3] = test system: liaI expression (pMUTIN-derived lacZ fusion, strain BFS2470); test: microbe, parasite or virus in culture; conditions: for fold induction of liaI expression: text to FIG. 4: bacitracin 100 μg/mL, tunicamycin 50 μg/mL, vancomycin 2 μg/mL, 30 minutes, nisin, ramoplanin results not shown
Procedure: Disc-diffusion assays were used to determine the spectrum of stimuli that induce the expression of liaIH. The B. subtilis strains BFS2469 and BFS2470 (Table 2), harboring pMUTIN-insertions in liaH and liaI respectively, were plated on a medium containing the indicator dye X-gal and overlaid with filter disks impregnated with various antibiotics that interfere with cell wall biosynthesis. Specifically, cultures of B. subtilis strain BFS2469 (liaH::pMUTIN) and BFS2470 (liaI::pMUTIN) were grown in LB medium to midlog phase, 2 mL for the un-induced control sample were harvested, and the remaining culture was induced with the three antibiotics for 30 minutes, before the cells of the induced sample were harvested. All samples were taken in duplicate from two independent cultures and the standard deviation is indicated by error bars.
Measurement of induction by β-galactosidase assays: Cells were inoculated from fresh overnight LB-plates and grown in LB-medium at 37° C. with aeration until they reached an O.D.600=0.45. 2 mL of cultures were harvested (un-induced control) and the cell pellets were shock frozen and kept at −70° C. The cultures were induced by addition of antibiotics to a final concentration of: bacitracin (100 μg/mL), tunicamycin (50 μg/mL) or vancomycin (2 μg/mL) and incubated for additional 30 min at 37° C. 2 mL of the cultures were harvested as described above (induced sample). The pellets were re-suspended in 1 mL of working buffer and assayed for β-galactosidase activity as described with normalization to cell density (Miller, 1972, the entire teaching of which is incorporated herein by reference).
For quantitative measurements of β-galactosidase activity, cells were inoculated from fresh overnight LB-plates and grown in LB medium at 37 YC with aeration until they reached an OD600 of 0.45. 2 ml of the culture was harvested (un-induced control) and the cell pellets were frozen and kept at −80 YC. The cultures were induced by addition of the compound to be tested to the final concentration as described in the individual figure legends and incubated for an additional 30 min at 37 YC. 2 ml of the cultures were harvested as described above. The pellets were re-suspended in 1 ml of working buffer (60 mM Na2HPO4, 40 mMNaH2PO4, 10 mM KCl, 1 mM MgSO4, 4 mM DTT) and assayed for β-galactosidase activity as described with normalization to cell density Kobayashi, K., et al., 2001, J Bacteriol 183:7365-7370). […] A sample was taken after 30 min for β-galactosidase assay and the turbidity of the remaining culture was measured for at least 5 hours to monitor the concentration-dependent effects of the antibiotics on cell growth.

[4] = test system: liaI expression in B. subtilis; conditions: 10 min after vancomycin addition; cited from earlier work

## CN(C)[C@@H]1C(O)=C(C(N)=O)C(=O)[C@@]2(O)C(O)=C3C(=O)c4c(O)cccc4[C@@](C)(O)[C@H]3C[C@@H]12 [tetracycline]
[1]
  disk-diffusion assay: −

## N#CC(C#N)=NNc1cccc(Cl)c1 [CCCP]
[1]
  disk-diffusion assay: −
  induction of liaI / liaH expression, in words: neither elevated liaIH expression

## NC[C@H]1O[C@H](O[C@H]2[C@H](O)[C@@H](O[C@H]3O[C@H](CO)[C@@H](O)[C@H](N)[C@H]3O)[C@H](N)C[C@@H]2N)[C@H](O)[C@@H](O)[C@@H]1O [kanamycin]
[1]
  disk-diffusion assay: −

## CO[C@H]1/C=C/O[C@@]2(C)Oc3c(C)c(O)c4c(O)c(c(/C=N/N5CCN(C)CC5)c(O)c4c3C2=O)NC(=O)/C(C)=C\C=C\[C@H](C)[C@H](O)[C@@H](C)[C@@H](O)[C@@H](C)[C@H](OC(C)=O)[C@@H]1C [rifampicin]
[1]
  disk-diffusion assay: −

## CCCCCCCCCCCC[N+](C)(C)Cc1ccccc1.[Br-] [BDMDDA-Br, Benzyldimethyldodecylammonium bromide]
[1]
  disk-diffusion assay: −

## [H]/N=C(/N)N[C@H]1[C@H](O)[C@@H](O)[C@H](O[C@@H]2O[C@@H](C)[C@](O)(C=O)[C@H]2O[C@@H]2O[C@@H](CO)[C@H](O)[C@@H](O)[C@@H]2NC)[C@@H](N/C(N)=N\[H])[C@@H]1O [streptomycin]
[1]
  disk-diffusion assay: −

## CCCCCCCCCCCCCCCC[N+](C)(C)Cc1ccccc1.[Cl-] [BDMHDA-Cl, Benzyldimethylhexadecylammonium chloride]
[1]
  disk-diffusion assay: +
  induction of liaI / liaH expression, in words: moderately induced

## CCCCCCCCCCCCOS(=O)(=O)[O-].[Na+] [SDS, sodium dodecylsulfate]
[1]
  disk-diffusion assay: −

## Lysozyme
[1]
  disk-diffusion assay: −
  induction of liaI / liaH expression, in words: ineffective as an inducer

## Triton X100
[1]
  disk-diffusion assay: −

## CC1(C)S[C@@H]2[C@H](NC(=O)Cc3ccccc3)C(=O)N2[C@H]1C(=O)O [Penicillin G]
[1]
  disk-diffusion assay: −

## CN[C@@H]1[C@H](O)[C@H](NC)[C@H]2O[C@@]3(O)C(=O)C[C@@H](C)O[C@H]3O[C@@H]2[C@H]1O [spectinomycin]
[1]
  disk-diffusion assay: −

## O=C(N[C@H](CO)[C@H](O)c1ccc([N+](=O)[O-])cc1)C(Cl)Cl [Chloramphenicol]
[1]
  disk-diffusion assay: −

## CC1(C)S[C@@H]2[C@H](NC(=O)[C@H](N)c3ccccc3)C(=O)N2[C@H]1C(=O)O [Ampicillin]
[1]
  disk-diffusion assay: −

## CN[C@H](CC(C)C)C(=O)N[C@H]1C(=O)N[C@@H](CC(N)=O)C(=O)N[C@H]2C(=O)N[C@H]3C(=O)N[C@H](C(=O)N[C@H](C(=O)O)c4cc(O)cc(O)c4-c4cc3ccc4O)[C@H](O)c3ccc(c(Cl)c3)Oc3cc2cc(c3O[C@@H]2O[C@H](CO)[C@@H](O)[C@H](O)[C@H]2O[C@H]2C[C@](C)(N)[C@H](O)[C@H](C)O2)Oc2ccc(cc2Cl)[C@H]1O [Vancomycin]
[2]
  lacZ-expression at higher concentration: remained elevated
  effect on cell growth / optical density: little effect
  antibiotic concentration at maximum induction of liaI: ~1 µg/mL
[1]
  disk-diffusion assay: +
  induction of liaI / liaH expression, in words: induced
[3]; Bacillus subtilis, 0.5 h, read-out: fold induction of liaI expression
  fold induction at 2 µg/mL: ~65
[4]
  increase in liaI expression level: more than 100 fold

## N[C@@H]1CONC1=O [D-cycloserin]
[1]
  disk-diffusion assay: −

## Polymyxin B
[1]
  disk-diffusion assay: −

## Ramoplanin
[2]
  lacZ-expression at higher concentration: strong decrease down to un-induced levels
  effect on cell growth / optical density: rapid cell lysis
  antibiotic concentration at maximum induction of liaI: about 10 μg/ml
[1]
  disk-diffusion assay: +
  induction of liaI / liaH expression, in words: induced
[3]
  fold induction of liaI expression: 420 fold

## O=[N+]([O-])c1ccc(O)c([N+](=O)[O-])c1 [DNP]
[1]
  disk-diffusion assay: −
  induction of liaI / liaH expression, in words: neither elevated liaIH expression

## Moenomycin
[1]
  disk-diffusion assay: −

## CCCCCCCCCCCCCCCC[N+](C)(C)C.[Br-] [HDTMA-Br, Hexadecyltrimethylammonium]
[1]
  disk-diffusion assay: −

## Tunicamycin
[1]
  disk-diffusion assay: +
[3]
  fold induction of liaI expression: three-fold
